Calls of active or inactive are those of the source. The rule behind the calls is not given here.
What was measured:
Cell membrane [1] = assay: Induction of cell membrane depolarization in methicillin-resistant Staphylococcus aureus USA 3390 assessed as increase in fluorescence intensity at 1 to 8 times of MIC concentration measured upto 60 mins by DiSC3-5 dye based fluorescence analysis; type: cell membranes
Staphylococcus aureus [2] = assay: Induction of cell membrane permeability in methicillin-resistant Staphylococcus aureus USA 3390 assessed as increase in leakage of 260 nm absorbing material at measured upto 6 hrs; type: functional, organism-based
Cell membrane [3] = assay: Induction of cell membrane permeability in methicillin-resistant Staphylococcus aureus USA 3390 persisters assessed as increase in leakage (DNA) of 260 nm absorbing material at 1 to 8 times of MIC measured upto 5 hrs; type: cell membranes
Staphylococcus aureus [4] = assay: Induction of cell membrane permeability in methicillin-resistant Staphylococcus aureus USA 3390 assessed as increase absorption in leakage of 260 nm absorbing material at 1 to 8 times of MIC measured at 4 hrs; type: functional, organism-based
Staphylococcus aureus [5] = assay: Induction of cell membrane permeability in methicillin-resistant Staphylococcus aureus USA 3390 assessed as increase in leakage of 260 nm absorbing material at 1 to 8 times of MIC; type: functional, organism-based; conditions: time <= 6.0 hrs, TDE = time-dependent effect
Escherichia coli [6] = assay: Antibacterial activity against Escherichia coli 53328 assessed as inhibition of bacterial growth measured after 18 hrs by microplate reader; type: functional; conditions: read-out: MIC100
Staphylococcus aureus [7] = assay: Bactericidal activity against methicillin-resistant Staphylococcus aureus USA 3390 assessed as reduction in CFU at 1 times of MIC concentration measured after 1 hrs by time-kill kinetics assay; type: functional, organism-based
Staphylococcus aureus [8] = assay: Antibacterial activity against methicillin-resistant Staphylococcus aureus USA 3390 assessed as eradication of persistence by measuring rapid killing effect 4 times of MIC concentration measured upto 7 hrs; type: functional, organism-based
Cell membrane [9] = assay: Induction of cell membrane permeability of methicillin-resistant Staphylococcus aureus USA 3390 persisters assessed as increase in fluorescence intensity at 4 to 8 ug/ml measured at 30 mins by SYTOX green assay relative to control; type: cell membranes; conditions: dose 4-8 µg/ml
Staphylococcus aureus [10] = assay: Bactericidal activity against methicillin-resistant Staphylococcus aureus USA 3390 assessed as reduction in CFU at 4 to 8 times of MIC concentration measured after 24 hrs by time-kill kinetics assay; type: functional, organism-based
Staphylococcus aureus [11] = assay: In vivo antibacterial efficacy in bioluminescent Staphylococcus aureus Xen29 infected in mouse topical infection model assessed as wound scabbing at 8 mg/kg, sc treated 16, 24, 36, 48, […] hrs post-infection measured after 84 hrs; type: functional, organism-based
Staphylococcus aureus [12] = assay: Bactericidal activity against methicillin-resistant Staphylococcus aureus USA 3390 assessed as reduction in CFU at 4 times of MIC concentration measured upto 1 hrs by time-kill kinetics assay; type: functional
Cell membrane [13] = assay: Induction of cell membrane depolarization of methicillin-resistant Staphylococcus aureus USA 3390 persisters assessed as increase in fluorescence intensity at 4 to 8 ug/ml measured at 10 mins by SYTOX green assay relative to control; type: cell membranes; conditions: dose 4-8 µg/ml
Staphylococcus aureus [14] = assay: Bactericidal activity against methicillin-resistant Staphylococcus aureus USA 3390 assessed as reduction in CFU at 1 times of MIC concentration measured for short time by time-kill kinetics assay; type: functional, organism-based
Staphylococcus aureus [15] = assay: Bactericidal activity against methicillin-resistant Staphylococcus aureus USA 3390 assessed as reduction in CFU at 2 times of MIC concentration measured upto 4 hrs by time-kill kinetics assay; type: functional
Acinetobacter baumannii [16] = assay: Antibacterial activity against Acinetobacter baumannii ATCC 19606 assessed as inhibition of bacterial growth measured after 18 hrs by microplate reader; type: functional; conditions: read-out: MIC100
Staphylococcus aureus [17] = assay: Bactericidal activity against methicillin-resistant Staphylococcus aureus USA 3390 assessed as reduction in CFU at 1 times of MIC concentration measured after 24 hrs by time-kill kinetics assay; type: functional, organism-based
Cell membrane [18] = assay: Induction of plasma membrane damage in methicillin-resistant Staphylococcus aureus USA 3390 at logarithmic growth phase at 4 times of MIC measured after 1 hr by Scanning electron micrographic analysis; type: cell membranes
Acinetobacter baumannii [19] = assay: Antibacterial activity against Acinetobacter baumannii ATCC 1318 assessed as inhibition of bacterial growth measured after 18 hrs by microplate reader; type: functional; conditions: read-out: MIC100
Staphylococcus aureus [20] = assay: Bactericidal activity against methicillin-resistant Staphylococcus aureus USA 3390 assessed as reduction in CFU at 2 times of MIC concentration measured after 24 hrs by time-kill kinetics assay; type: functional, organism-based
Staphylococcus aureus [21] = assay: In vivo antibacterial efficacy in bioluminescent Staphylococcus aureus Xen29 infected in mouse topical infection model assessed as decrease in fluorescence intensity at 8 mg/kg, sc treated 16, 24, 36, 48, […] hrs post-infection measured after 84 hrs; type: functional, organism-based
[22] = Cytotoxicity against human L02 cells incubated for 72 hrs by MTT dye reduction assay; type: toxicity, cell-based
Staphylococcus aureus [23] = assay: Antibacterial activity against methicillin-resistant Staphylococcus aureus USA 3390 assessed as eradication of persistence by measuring rapid killing effect 8 times of MIC concentration measured upto 7 hrs; type: functional, organism-based
Pseudomonas aeruginosa [24] = assay: Antibacterial activity against Pseudomonas aeruginosa 535 assessed as inhibition of bacterial growth measured after 18 hrs by microplate reader; type: functional; conditions: read-out: MIC100
Escherichia coli [25] = assay: Antibacterial activity against Escherichia coli ATCC 25922 assessed as inhibition of bacterial growth measured after 18 hrs by microplate reader; type: functional; conditions: read-out: MIC100
Pseudomonas aeruginosa [26] = assay: Antibacterial activity against Pseudomonas aeruginosa ATCC 27853 assessed as inhibition of bacterial growth measured after 18 hrs by microplate reader; type: functional; conditions: read-out: MIC100
Cell membrane [27] = assay: Induction of cell membrane damage in methicillin-resistant Staphylococcus aureus USA 3390 assessed as increase in fluorescence intensity at 1 to 8 times of MIC concentration measured upto 120 mins by SYTOX green assay relative to control; type: cell membranes
Staphylococcus aureus [28] = assay: Bactericidal activity against methicillin-resistant Staphylococcus aureus USA 3390 assessed as reduction in CFU at 4 times of MIC concentration measured after 24 hrs by time-kill kinetics assay; type: functional, organism-based
Staphylococcus aureus [29] = assay: Antibacterial activity against methicillin-resistant Staphylococcus aureus USA 3390 assessed as eradication of persistence by measuring rapid killing effect 4 times of MIC concentration relative to control; type: functional
Klebsiella pneumoniae [30] = assay: Antibacterial activity against Klebsiella pneumonia 3026 assessed as inhibition of bacterial growth measured after 18 hrs by microplate reader; type: functional; conditions: read-out: MIC100
[31] = Toxicity in mouse infected with bioluminescent Staphylococcus aureus Xen29 assessed as change in body weight at 8 mg/kg, sc treated 16, 24, 36, 48, […] and 72 hrs post-infection measured after 84 hrs; type: organism-based; conditions: in vivo
Staphylococcus aureus [32] = assay: Antibacterial activity against methicillin-resistant Staphylococcus aureus USA 3390 assessed as eradication of persistence by measuring rapid killing effect 8 times of MIC concentration relative to control; type: functional
Cell membrane [33] = assay: Induction of cell membrane damage in methicillin-resistant Staphylococcus aureus USA 3390 assessed as increase in fluorescence intensity at 1 to 8 times of MIC concentration measured at 5 mins by SYTOX green assay; type: cell membranes
Staphylococcus aureus [34] = assay: In vivo antibacterial efficacy in bioluminescent Staphylococcus aureus Xen29 infected in mouse topical infection model assessed as reduction in number of colonies at 8 mg/kg, sc treated 16, 24, 36, 48, […] hrs post-infection measured after 84 hrs relative to control; type: functional
Staphylococcus aureus [35] = assay: Drug resistance, ratio of MIC for methicillin-resistant Staphylococcus aureus USA 3390 after […] exposure to MIC for methicillin-resistant Staphylococcus aureus USA 3390 after first exposure; type: functional
Klebsiella pneumoniae [36] = assay: Antibacterial activity against Klebsiella pneumonia ATCC 700603 assessed as inhibition of bacterial growth measured after 18 hrs by microplate reader; type: functional; conditions: read-out: MIC100
Cell membrane [37] = assay: Induction of cell membrane damage in methicillin-resistant Staphylococcus aureus USA 3390 assessed as rough/shrunken and wrinkled surface at logarithmic growth phase at 4 times of MIC measured after 1 hr by Scanning electron micrographic analysis; type: cell membranes

Question: With `Cc1cc(OC(=O)CCCCC[P+](c2ccccc2)(c2ccccc2)c2ccccc2)c(C(C)C)cc1-c1ccccc1.[Br-]` as the compound, how does the Activity (Cell membrane [1]) read?
Answer: The Activity was “Active”.

Question: And the Activity (Staphylococcus aureus [2])?
Answer: The Activity was “Dose-Dependent Effect”.

Question: And the Activity (Cell membrane [3])?
Answer: Its Activity is “Active”.

Question: And the Activity (Staphylococcus aureus [4])?
Answer: Its Activity is “Active”.

Question: What about the Activity (Staphylococcus aureus [5]) of the same compound?
Answer: Its Activity is “Tde”.

Question: And the MIC (Escherichia coli [6])?
Answer: The MIC was 8 µg/mL.

Question: What about the Activity (Staphylococcus aureus [7]) of the same compound?
Answer: The Activity was “Active”.

Question: And the Activity (Staphylococcus aureus [8])?
Answer: The Activity was “Active”.

Question: And the Activity (Cell membrane [9])?
Answer: Its Activity is “Active”.

Question: And the Activity (Staphylococcus aureus [10])?
Answer: The Activity was “Active”.

Question: What about the Activity (Staphylococcus aureus [11]) of the same compound?
Answer: Its Activity is “Active”.

Question: What about the Activity (Staphylococcus aureus [12]) of the same compound?
Answer: The Activity was “>=2 log10CFU/ml”.

Question: And the Activity (Cell membrane [13])?
Answer: The Activity was “Active”.

Question: And the Activity (Staphylococcus aureus [14])?
Answer: Its Activity is “Active”.

Question: And the Activity (Staphylococcus aureus [15])?
Answer: Its Activity is “>=2 log10CFU/ml”.

Question: And the MIC (Acinetobacter baumannii [16])?
Answer: The MIC was 8 µg/mL.

Question: And the Activity (Staphylococcus aureus [17])?
Answer: Its Activity is “Active”.

Question: What about the Activity (Cell membrane [18]) of the same compound?
Answer: The Activity was “Active”.

Question: And the MIC (Acinetobacter baumannii [19])?
Answer: The MIC was 8 µg/mL.

Question: And the Activity (Staphylococcus aureus [20])?
Answer: The Activity was “inactive”.

Question: What about the Activity (Staphylococcus aureus [21]) of the same compound?
Answer: The Activity was “Active”.

Question: And the IC50 at 72 h [22]?
Answer: Its IC50 at 72 h is 34.3 µg/mL.

Question: And the Activity (Staphylococcus aureus [23])?
Answer: Its Activity is “Active”.

Question: What about the MIC (Pseudomonas aeruginosa [24]) of the same compound?
Answer: Its MIC is 64 µg/mL.

Question: And the MIC (Escherichia coli [25])?
Answer: The MIC was 8 µg/mL.

Question: And the MIC (Pseudomonas aeruginosa [26])?
Answer: Its MIC is 32 µg/mL.

Question: And the Activity (Cell membrane [27])?
Answer: Its Activity is “Active”.

Question: What about the Activity (Staphylococcus aureus [28]) of the same compound?
Answer: The Activity was “Active”.

Question: What about the Activity (Staphylococcus aureus [29]) of the same compound?
Answer: Its Activity is 99.99%.

Question: What about the MIC (Klebsiella pneumoniae [30]) of the same compound?
Answer: The MIC was 16 µg/mL.

Question: And the Activity [31]?
Answer: The Activity was “Non-Toxic”.

Question: And the Activity (Staphylococcus aureus [32])?
Answer: The Activity was 99.999%.

Question: And the Activity (Cell membrane [33])?
Answer: The Activity was “Active”.

Question: And the “fold change (FC)” value (Staphylococcus aureus [34])?
Answer: The value was 10.

Question: What about the Ratio (Staphylococcus aureus [35]) of the same compound?
Answer: Its Ratio is 4.

Question: And the MIC (Klebsiella pneumoniae [36])?
Answer: Its MIC is 8 µg/mL.

Question: And the Activity (Cell membrane [37])?
Answer: The Activity was “Active”.
